The structures appear in SMILES notation. Numbers after ± are expanded uncertainties.

As a reminder, the mass density is the mass of a sample divided by its volume.

For this series the following is noted: 101.33 kPa, Liquid, Vibrating tube method.

As to `CCCCn1cc[n+](C)c1.F[P-](F)(F)(F)(F)F` [1-butyl-3-methylimidazolium hexafluorophosphate], the mass density was determined as 1369.9 ± 18 kg/m3 (298.15 K), 1350.4 ± 26 kg/m3 (313.15 K), 1325.2 ± 21 kg/m3 (333.15 K) and 1288.4 ± 39 kg/m3 (353.15 K).

On to `CCOS(=O)(=O)[O-].CCn1cc[n+](C)c1` [1-ethyl-3-methylimidazolium ethyl sulfate], for which the mass density by setting is: (298.15 K) 1234.1 ± 18 kg/m3; (313.15 K) 1219.1 ± 18 kg/m3; (333.15 K) 1199.1 ± 27 kg/m3; (353.15 K) 1170.4 ± 39 kg/m3.

The values are drawn from the NIST ThermoML archive (doi:10.1021/acs.jced.6b00751).
